From patent US20060211687A1, “Potassium salt of an hiv integrase inhibitor” (priority 2003, published 2006)

Experiments:
hygroscopicity = assay type: physicochemical; settings: compared with the sodium salt of Compound A
[1] = pharmacokinetics in animal models; assay type: in vivo; settings: over the free base
stability of the salt = assay type: physicochemical; settings: compared with the sodium salt of Compound A
solubility in water = assay type: physicochemical; settings: compared to the free base
[2] = oral bioavailability and pharmacokinetics in dogs; assay type: in vivo; settings: relative to amorphous and crystalline Compound A
[3] = oral bioavailability and pharmacokinetics in rats; assay type: in vivo; settings: relative to amorphous and crystalline Compound A
[4] = test system: HIV infection of T-lymphoid cells; experiment: inhibition of acute HIV infection of T-lymphoid cells; assay type: cell-based; settings: in accordance with Vacca et al.
HIV integrase = molecular target: T1, HIV integrase (Human immunodeficiency virus type 1 group M subtype B, UniProt P04585); experiment: integrase inhibition assay in which strand transfer is catalyzed by recombinant integrase; assay type: biochemical; settings: assay of Example 193 of WO 02/30930
T1 construct: strand transfer is catalyzed by recombinant integrase
Description: Compound A is an inhibitor of HIV integrase. […] The strand transfer assay is described in Example 193 of WO 02/30930.

[5] = solubility in ethanol containing water; assay type: physicochemical; settings: ethanol containing 1 to 5 vol. % and 10 vol% water
Experimental: Experiments have been conducted in which the Compound A K salt ethanolate of the present invention was slurried in ethanol containing 1, 2, 3, 4, 5 and 10 vol. % water, followed by measurement of the XRPD patterns of the collected crystals. In addition, the solubility of the Compound A K salt ethanolate was also determined for the 1 to 5 vol. % and 10 vol% water in ethanol solutions. […] Accordingly, it is believed that the crystalline ethanolate hydrate material of the present invention exists as a water-ethanol isomorphic co-solvate. […] In accordance with these experimental results, the crystalline potassium salt ethanolate of Compound A of the invention can contain water as a co-solvate up to a maximum water content, beyond which the crystalline salt (as shown by the XRPD and solubility results described above) changes to another form.

[6] = listed as crystalline potassium salt of Compound A

## CNC(=O)c1cc(F)ccc1CNC(=O)c1nc(N2CCCCS2(=O)=O)c2cccnc2c1[O-].[K+] [potassium salt of Compound A, Potassium 5-(1,1-dioxido-1,2-thiazinan-2-yl)-7-[({4-fluoro-2-[(methylamino)-carbonyl]benzyl}amino)carbonyl]-1,6-naphthyridin-8-olate]
hygroscopicity
  hygroscopicity: significantly less hygroscopic
hygroscopicity; [6]
  hygroscopicity: less
[1]
  pharmacokinetics: improved
Stability of the salt
  stability: more stable
Stability of the salt; [6]
  stability: improved
Solubility in water
  solubility in water: significantly more soluble
[2]
  AUC: improved
  Cmax: improved
  oral bioavailability: superior
[3]
  AUC: improved
  Cmax: improved
  oral bioavailability: superior

## CNC(=O)c1cc(F)ccc1CNC(=O)c1nc(N2CCCCS2(=O)=O)c2cccnc2c1O [Compound A, 5-(1,1-dioxido-1,2-thiazinan-2-yl)-N-{4-fluoro-2-[(methylamino)carbonyl]benzyl}-8-hydroxy-1,6-naphthyridine-7-carboxamide]
[4]
  inhibition of acute HIV infection of T-lymphoid cells: active
HIV integrase
  inhibition of HIV integrase (strand transfer): potent inhibitor

## CNC(=O)c1cc(F)ccc1CNC(=O)c1nc(N2CCCCS2(=O)=O)c2cccnc2c1[O-].[K+] [Salt A1, Potassium 5-(1,1-dioxido-1,2-thiazinan-2-yl)-7-[({4-fluoro-2-[(methylamino)carbonyl]benzyl}amino)carbonyl]-1,6-naphthyridin-8-olate]
[5]
  solubility trend: increasing solubility from 1 to 5 vol % reversed to lower solubility at 10 vol. %
